Test results taken from the CheMixHub viscosity set.

Experiment: xn = mol fraction of the nth substance listed

CNC=O + O
viscosity [mPa·s]
Details	298 K	298.15 K	303 K	303.15 K	308.15 K	313.15 K	318.15 K	323.15 K
101 kPa, x1 = 0.0328	1.05	–	0.9456	–	–	–	–	–
101 kPa, x1 = 0.1	–	1.384	–	1.219	1.083	0.9687	0.871	–
101 kPa, x1 = 0.1158	1.305	–	1.176	–	–	–	–	–
101 kPa, x1 = 0.1999	–	1.754	–	1.539	1.363	1.215	1.084	–
101 kPa, x1 = 0.2341	1.573	–	1.425	–	–	–	–	–
101 kPa, x1 = 0.3002	–	1.967	–	1.728	1.532	1.366	1.222	–
101 kPa, x1 = 0.4001	–	–	–	1.805	1.608	1.44	1.3	–
101 kPa, x1 = 0.4163	–	–	1.625	–	–	–	–	–
101 kPa, x1 = 0.4998	–	2.031	–	1.818	1.636	1.472	1.331	–
101 kPa, x1 = 0.6006	–	1.975	–	1.772	1.59	1.437	1.304	–
101 kPa, x1 = 0.6995	–	1.902	–	1.712	1.546	1.401	1.273	–
101 kPa, x1 = 0.7334	1.658	–	1.5	–	–	–	–	–
101 kPa, x1 = 0.8	–	1.836	–	1.658	1.502	1.364	1.243	–
101 kPa, x1 = 0.8997	–	1.781	–	1.609	1.459	1.327	1.21	–
101.33 kPa, x1 = 0.0969	–	–	–	1.216	1.086	0.974	0.8818	0.8012
101.33 kPa, x1 = 0.2015	–	–	–	1.529	1.36	1.219	1.098	0.9948
101.33 kPa, x1 = 0.2996	–	–	–	1.718	1.531	1.373	1.24	1.124
101.33 kPa, x1 = 0.4005	–	–	–	1.792	1.603	1.445	1.308	1.187
101.33 kPa, x1 = 0.4994	–	–	–	1.789	1.61	1.458	1.327	1.211
101.33 kPa, x1 = 0.5995	–	–	–	1.753	1.576	1.443	1.32	1.21
101.33 kPa, x1 = 0.6999	–	–	–	1.693	1.542	1.412	1.296	1.193
101.33 kPa, x1 = 0.7999	–	–	–	1.649	1.509	1.388	1.279	1.182
101.33 kPa, x1 = 0.9001	–	–	–	1.61	1.478	1.361	1.261	1.164

OC[C@@H](O)[C@@H](O)[C@H](O)[C@@H](O)CO + O
Details	viscosity [mPa·s]
293.15 K, 101 kPa, x1 = 0.0142	1.458
303.15 K, 101 kPa, x1 = 0.002	0.8134
303.15 K, 101 kPa, x1 = 0.003592	0.8731
303.15 K, 101 kPa, x1 = 0.004	0.8647
303.15 K, 101 kPa, x1 = 0.006	0.916
303.15 K, 101 kPa, x1 = 0.007154	0.948
303.15 K, 101 kPa, x1 = 0.0078	0.9637
303.15 K, 101 kPa, x1 = 0.008	0.9675
303.15 K, 101 kPa, x1 = 0.0089	0.9962
303.15 K, 101 kPa, x1 = 0.01	1.019
303.15 K, 101 kPa, x1 = 0.012	1.071
303.15 K, 101 kPa, x1 = 0.0122	1.072
303.15 K, 101 kPa, x1 = 0.0135	1.104
303.15 K, 101 kPa, x1 = 0.016	1.175
303.15 K, 101 kPa, x1 = 0.0194	1.277
303.15 K, 101 kPa, x1 = 0.02	1.279
303.15 K, 101 kPa, x1 = 0.0228	1.345
303.15 K, 101 kPa, x1 = 0.024	1.383
303.15 K, 101 kPa, x1 = 0.026	1.436
303.15 K, 101 kPa, x1 = 0.028	1.489
305.15 K, 100 kPa, x1 = 4e-05	0.8093
305.15 K, 100 kPa, x1 = 7e-05	0.8135
308.15 K, 101 kPa, x1 = 0.004	0.7869
308.15 K, 101 kPa, x1 = 0.006	0.8221
308.15 K, 101 kPa, x1 = 0.008	0.8763
308.15 K, 101 kPa, x1 = 0.01	0.9231
308.15 K, 101 kPa, x1 = 0.012	0.9658
308.15 K, 101 kPa, x1 = 0.014	1.008
308.15 K, 101 kPa, x1 = 0.016	1.054
308.15 K, 101 kPa, x1 = 0.018	1.105
308.15 K, 101 kPa, x1 = 0.02	1.147
308.15 K, 101 kPa, x1 = 0.022	1.203
308.15 K, 101 kPa, x1 = 0.024	1.245
308.15 K, 101 kPa, x1 = 0.026	1.291
308.15 K, 101 kPa, x1 = 0.028	1.355
310.15 K, 100 kPa, x1 = 4e-05	0.7489
310.15 K, 100 kPa, x1 = 7e-05	0.7596
313.15 K, 101 kPa, x1 = 0.002	0.6825
313.15 K, 101 kPa, x1 = 0.004	0.7202
313.15 K, 101 kPa, x1 = 0.006	0.7581
313.15 K, 101 kPa, x1 = 0.007154	0.7675
313.15 K, 101 kPa, x1 = 0.0078	0.7956
313.15 K, 101 kPa, x1 = 0.008	0.7961
313.15 K, 101 kPa, x1 = 0.0089	0.815
313.15 K, 101 kPa, x1 = 0.01	0.8344
313.15 K, 101 kPa, x1 = 0.0107	0.834
313.15 K, 101 kPa, x1 = 0.012	0.8728
313.15 K, 101 kPa, x1 = 0.0122	0.8704
313.15 K, 101 kPa, x1 = 0.014	0.9114
313.15 K, 101 kPa, x1 = 0.016	0.9502
313.15 K, 101 kPa, x1 = 0.0169	0.9712
313.15 K, 101 kPa, x1 = 0.0177	0.9777
313.15 K, 101 kPa, x1 = 0.018	0.9891
313.15 K, 101 kPa, x1 = 0.022	1.068
313.15 K, 101 kPa, x1 = 0.0228	1.077
313.15 K, 101 kPa, x1 = 0.024	1.107
313.15 K, 101 kPa, x1 = 0.026	1.147
313.15 K, 101 kPa, x1 = 0.028	1.187
315.15 K, 100 kPa, x1 = 4e-05	0.7083
315.15 K, 100 kPa, x1 = 7e-05	0.7362
318.15 K, 101 kPa, x1 = 0.004	0.6625
318.15 K, 101 kPa, x1 = 0.006	0.6978
318.15 K, 101 kPa, x1 = 0.008	0.7286
318.15 K, 101 kPa, x1 = 0.01	0.7647
318.15 K, 101 kPa, x1 = 0.012	0.796
318.15 K, 101 kPa, x1 = 0.014	0.8293
318.15 K, 101 kPa, x1 = 0.016	0.8716
318.15 K, 101 kPa, x1 = 0.018	0.9013
318.15 K, 101 kPa, x1 = 0.02	0.9433
318.15 K, 101 kPa, x1 = 0.022	0.9822
318.15 K, 101 kPa, x1 = 0.024	1.015
318.15 K, 101 kPa, x1 = 0.026	1.06
318.15 K, 101 kPa, x1 = 0.028	1.089
323.15 K, 101 kPa, x1 = 0.002	0.5854
323.15 K, 101 kPa, x1 = 0.003592	0.5894
323.15 K, 101 kPa, x1 = 0.004	0.6131
323.15 K, 101 kPa, x1 = 0.006	0.6414
323.15 K, 101 kPa, x1 = 0.0078	0.6663
323.15 K, 101 kPa, x1 = 0.008	0.6702
323.15 K, 101 kPa, x1 = 0.0089	0.685
323.15 K, 101 kPa, x1 = 0.01	0.6996
323.15 K, 101 kPa, x1 = 0.0103	0.7078
323.15 K, 101 kPa, x1 = 0.0107	0.6878
323.15 K, 101 kPa, x1 = 0.0112	0.716
323.15 K, 101 kPa, x1 = 0.012	0.7295
323.15 K, 101 kPa, x1 = 0.0122	0.7288
323.15 K, 101 kPa, x1 = 0.014	0.76
323.15 K, 101 kPa, x1 = 0.0142	0.7324
323.15 K, 101 kPa, x1 = 0.015	0.7741
323.15 K, 101 kPa, x1 = 0.016	0.791
323.15 K, 101 kPa, x1 = 0.0169	0.8041
323.15 K, 101 kPa, x1 = 0.0177	0.7979
323.15 K, 101 kPa, x1 = 0.018	0.8226
323.15 K, 101 kPa, x1 = 0.0194	0.8507
323.15 K, 101 kPa, x1 = 0.02	0.8547
323.15 K, 101 kPa, x1 = 0.022	0.8874
323.15 K, 101 kPa, x1 = 0.0228	0.8982
323.15 K, 101 kPa, x1 = 0.024	0.9206
323.15 K, 101 kPa, x1 = 0.026	0.9544
323.15 K, 101 kPa, x1 = 0.028	0.9887
